# Reference: the supplement of paper PMC10307832
# Tests used:
# [1] = compound: C1CCC(CC1)N(CCNCCC2=C3C(=C(C=C2)O)NC(=O)CO3)C(=O)CCNCCC4=CC(=C(C=C4)Cl)Cl [AZ505]; experiment: relative viability (nuclei count vs DMSO), 5 days (fraction); higher = more cells survive
# Summary of the method: (§1)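 Following overnight incubation at 37 °C, lung cancer cell lines in 1536-well plates were pinned with five library-drug doses (not always all listed) in √10 steps on vehicle-anchored plates. The cells then spent 5 days without medium change before a combined fix, permeabilisation and Hoechst stain, 4× imaging and MetaXpress nuclear counts. Viability is the treated-to-vehicle ratio of nuclei, taken as the median across plates. Only plates with control CV below 25% and at least one doubling passed.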
# [2] = compound: Cn1c(=O)n(-c2ccc(C(C)(C)C#N)cc2)c2c3cc(-c4cnc5ccccc5c4)ccc3ncc21 [Dactolisib]; experiment: as above
# Summary of the method: as §1
Cell Line,relative viability ([1]; 0.08 µM),relative viability ([1]; 0.253 µM),relative viability ([1]; 0.8 µM),relative viability ([1]; 2.53 µM),relative viability ([1]; 8 µM),relative viability ([2]; 0.002 µM),relative viability ([2]; 0.006325 µM),relative viability ([2]; 0.02 µM),relative viability ([2]; 0.06325 µM),relative viability ([2]; 0.2 µM)
LXF-289,0.967,0.98,0.988,1.02,1.01,1.07,1.04,1,0.998,0.84
NCI-H23,0.848,,0.874,0.995,1.12,1.05,0.863,0.835,0.372,0.335
NCI-H322M,0.906,0.824,0.954,0.826,1.02,1.04,0.931,0.734,0.702,0.579
NCI-H358,0.785,0.829,0.812,0.755,0.925,0.914,0.895,0.834,0.413,0.272
NCI-H441,0.865,1.09,1.07,0.997,1.24,1.28,1.02,0.925,0.48,0.298
NCI-H460,0.991,0.99,0.966,1,0.976,1.04,0.989,0.984,0.541,0.488
NCI-H520,0.92,1.07,0.86,1.08,1.04,1.01,0.777,0.764,0.243,0.2
NCI-H522,0.922,0.961,0.981,1.05,1,0.971,0.932,0.967,0.895,0.568
NCI-H596,0.888,0.784,0.972,0.955,0.957,1.09,0.91,0.886,0.558,0.409
NCI-H647,0.943,1.01,0.996,0.895,1.02,1.05,0.824,0.691,0.254,0.208
NCI-H650,1.01,0.887,0.948,1.1,1.01,1.07,0.937,0.892,0.747,0.412
NCI-H661,0.951,1.01,0.963,0.963,1,1.08,1.03,0.953,0.482,0.432
NCI-H727,0.836,0.879,0.864,0.654,1.11,0.839,1.02,0.9,0.487,0.414
